According to patent US4599337A, “Antiphlogistic/antipyretic/analgesic agents containing theobromine or theophylline derivatives as active ingredient” (Eisai Co., Ltd., priority 1985, dated 1986):
Where two headings read alike, the source gives them in different places.

How the values were obtained:
Wistar rats = assay: Antiphlogistic activity, carrageenin paw edema; type: in vivo, rat (Wistar); settings: Rattus norvegicus, po, 3 h
Description: Each test compound of this invention was administered orally to Wistar rats of about 300 g body weight, and 30 minutes later 0.05 ml of a 1% carrageenin solution was injected into a paw of each rat.

SD male rats [1] = assay: Antipyretic activity, dry yeast-induced fever; type: in vivo, rat (SD male); settings: Rattus norvegicus, po, p.o.
Description: A 2% suspension of dry yeast was injected subcutaneously to SD male rats of 250 to 300 g body weight in an amount of 2 ml/animal to cause a fever, and 4 hours later, the compounds of this invention and control drugs were administered orally. The rectal temperature of each rat was measured periodically, and the dosage of each compound required to reduce the fever by more than 1° C. at the peak of its activity was determined.

Acute toxicity in rats = assay: Acute toxicity in rats; set-up: species or system rat (SD male); settings: rat, in vivo, po
Description: (§1) Ten mice were used for each dose and morality was determined for 3 days after administration of each test compound of the invention. In the case of the rats, 5 rats were used for each dose and morality was determined 7 days after administrations.

Acute toxicity in mice = assay: Acute toxicity in mice; set-up: species or system mouse (ddy male); settings: mouse, in vivo, po
Description: as §1

ddy-strain male mice = assay: Analgesic activity, acetic acid writhing method; type: in vivo, mouse (ddy-strain male); settings: p.o.; for Analgesic activity ED50: acetic acid writhing
Description: (a) Acetic acid writhing method^1
A 0.7% acetic acid solution was injected intraperitoneally to ddy-strain male mice (20 to 25 g) in an amount of 0.1 ml per 10 g mouse body weight to cause a writhing syndrome typified by stretching of the hind legs. The inhibitory action of each test compound against said symptom was observed as a measure of the analgesic activity of the compound. In the tests, each of the compounds of this invention and each of the control drugs listed below were administered orally to each test animal, and 50 minutes later said acetic acid solution was injected in the manner described above and the total number of typical writhes was determined over a period of 15 minutes.

SD male rats [2] = assay: Analgesic activity, bradykinin-induced pain response; type: in vivo, rat (SD male); settings: p.o.; for Safety margin (LD50 /ED50): Table 2, rats; for Analgesic activity ED50 / Saftety margin (LD50 /ED50): Table 4, rats
Description: (b) Bradykinin-induced pain response^3,4
A polyethylene tube was inserted into a common right carotid artery of SD male rats (250 to 350 g) and 0.5 microngram per 0.1 ml of bradykinin was injected into the artery through said tube. Response induced by bradykinin such as flexin of the right forelimb, dextro-rotation of the head and rearing were considered as being indices of pain response, and the analgesic action of each test compound was determined by observing its inhibition of responses such symptoms.

ddy male mice = settings: p.o., given in Japan National Formulary, 6th Ed. (1982), 4320 min, cited from earlier work
SD male rats [3] = settings: p.o., given in Japan National Formulary, 6th Ed. (1982), 10080 min, cited from earlier work
[4] = rats, read-out: effective dose ED for reducing the fever by more than 1° C. at the peak of its activity
[5] = Table 5, rats, read-out: ED (effective dose for reducing the fever by more than 1° C. when the compound action is at the peak)

Molecule Cn1cnc2c1c(=O)n(CCCN1CCN(c3ccc(Cl)c(Cl)c3)CC1)c(=O)n2C [Compound A', 1-(3-(4-(3,4-dichlorophenyl)piperazinyl-(1))-n-propyl)theobromine] has an ED30 (Wistar rats; Table 7, rats) of 25 mg/kg and an ED (fever reduced by more than 1 degC) (SD male rats [1]; [4]) of 40 mg/kg.
With Cn1c(=O)c2c(ncn2CCCCN2CCN(c3ccc(F)cc3)CC2)n(C)c1=O [Compound A] the LD50 at 168 h (Acute toxicity in rats; Table 2, rats) was 353 to 500 mg/kg, the ED30 (Wistar rats; Table 6, rats) was 10 mg/kg and the LD50 at 72 h (Acute toxicity in mice; Table 1, mice) was 344 mg/kg. It also gave an ED (fever reduced by more than 1 degC) (SD male rats [1]; [5]) of 10 mg/kg.
Cc1cccc(N2CCN(CCn3c(=O)c4c(ncn4C)n(C)c3=O)CC2)c1C [Compound B', 1-(2-(4-(2,3-dimethylphenyl)piperazinyl-(1))-ethyl)theobromine.2HCl] showed an LD50 at 168 h (Acute toxicity in rats; Table 4, rats) of no less than 2000 mg/kg and an LD50 at 72 h (Acute toxicity in mice; Table 3, mice) of 600 mg/kg.
For Cn1c(=O)c2c(ncn2CCCCCN2CCN(c3ccc(Cl)cc3)CC2)n(C)c1=O [Compound B], the LD50 at 168 h (Acute toxicity in rats; Table 2, rats) was 353 to 500 mg/kg, the ED30 (Wistar rats; Table 6, rats) was 50 mg/kg and the LD50 at 72 h (Acute toxicity in mice; Table 1, mice) was 704 mg/kg. For the same molecule, the ED (fever reduced by more than 1 degC) (SD male rats [1]; [5]) was 40 mg/kg.
Cn1cnc2c1c(=O)n(CCCN1CCN(c3ccccc3Cl)CC1)c(=O)n2C [Compound C', 1-(3-(4-o-chlorophenylpiperazinyl-(1))-n-propyl)theobromine.2HCl] showed an ED30 (Wistar rats; Table 7, rats) of 10 mg/kg and an LD50 at 72 h (Acute toxicity in mice; Table 3, mice) of 200 mg/kg.
Cc1ccc(N2CCN(CCCn3cnc4c3c(=O)n(C)c(=O)n4C)CC2)cc1C [Compound C] gave an LD50 at 168 h (Acute toxicity in rats; Table 2, rats) of 770 mg/kg, an LD50 at 72 h (Acute toxicity in mice; Table 1, mice) of no less than 800 mg/kg and an ED (fever reduced by more than 1 degC) (SD male rats [1]; [5]) of 10 mg/kg.
In the case of COc1ccccc1N1CCN(CCCCn2c(=O)c3c(ncn3C)n(C)c2=O)CC1 [Compound D', 1-(4-(4-o-methoxyphenylpiperazinyl-(1))-n-butyl)theobromine.2HCl], the LD50 at 72 h (Acute toxicity in mice; Table 3, mice) is reported as 400 to 800 mg/kg.
For Cn1c(=O)c2c(ncn2CCCCN2CCN(c3ccc(Cl)cc3)CC2)n(C)c1=O [Compound D], the LD50 at 168 h (Acute toxicity in rats; Table 2, rats) was 505 mg/kg, the ED30 (Wistar rats; Table 6, rats) was 25 mg/kg and the LD50 at 72 h (Acute toxicity in mice; Table 1, mice) was 575 mg/kg. The ED (fever reduced by more than 1 degC) (SD male rats [1]; [5]) was 40 mg/kg.
In the case of Cn1cnc2c1c(=O)n(CCCCN1CCN(c3ccc(F)cc3)CC1)c(=O)n2C [Compound E', 1-(4-(4-p-fluoropenylpiperazinyl-(1))-n-butyl)theobromine.2HCl], the ED30 (Wistar rats; Table 7, rats) is reported as 25 mg/kg and the LD50 at 72 h (Acute toxicity in mice; Table 3, mice) is reported as 200 mg/kg.
In the case of Cn1cnc2c1c(=O)n(CCCCN1CCN(c3ccc(Cl)c(Cl)c3)CC1)c(=O)n2C [Compound F', 1-(4-(4-(3,4-dichlorophenyl)piperazinyl-(1))-n-butyl)theobromine.2HCl], the LD50 at 72 h (Acute toxicity in mice; Table 3, mice) is reported as 400 to 800 mg/kg.
For Cn1c(=O)c2c(ncn2CCCCCN2CCN(c3cccc(C(F)(F)F)c3)CC2)n(C)c1=O [Compound F], the LD50 at 168 h (Acute toxicity in rats; Table 2, rats) was 660 mg/kg, the ED30 (Wistar rats; Table 6, rats) was 25 mg/kg and the LD50 at 72 h (Acute toxicity in mice; Table 1, mice) was no less than 800 mg/kg. The ED (fever reduced by more than 1 degC) (SD male rats [1]; [5]) was 10 mg/kg.
In the case of Cc1cccc(N2CCN(CCCCCn3c(=O)c4c(ncn4C)n(C)c3=O)CC2)c1 [Compound G', 1-(5-(4-m-methylphenylpiperazinyl-(1))-n-pentyl)theobromine.2HCl], the ED30 (Wistar rats; Table 7, rats) is reported as 25 mg/kg, the LD50 at 72 h (Acute toxicity in mice; Table 3, mice) is reported as 300 mg/kg and the “Safety margin (LD50 /ED50)” value (ddy-strain male mice; Table 3, mice) is reported as 22.
In the case of COc1cc(C)nc(-n2nc(C)cc2OC)n1 [Control drug I, 4-methoxy-2-(5-methoxy-3-methylpyrazol-1-yl)-6-methylpyrimidine], the “Safety margin (LD50 /ED50)” value (SD male rats [2]) is reported as no more than 3, the “Analgesic activity ED50” value (SD male rats [2]) is reported as no less than 160 mg/kg and the “Saftety margin (LD50 /ED50)” value (SD male rats [2]) is reported as no more than 3. The “Acute toxicity LD50” value (ddy male mice; Table 1, mice) was 1,022 mg/kg, the “Acute toxicity LD50” value (ddy male mice; Table 3, mice) was 1022 mg/kg and the “Acute toxicity LD50” value (SD male rats [3]; Table 2, rats) was 526 mg/kg. The “Acute toxicity LD50” value (SD male rats [3]; Table 4, rats) was 526 mg/kg, the “Safety margin (LD50 /ED50)” value (ddy-strain male mice; Table 1, mice) was 4.3 and the “Safety margin (LD50 /ED50)” value (ddy-strain male mice; Table 3, mice) was 4.3. The “Analgesic activity ED50” value (ddy-strain male mice; Table 3, mice) was 240 mg/kg, the ED (fever reduced by more than 1 degC) (SD male rats [1]; [4]) was 40 mg/kg and the ED (fever reduced by more than 1 degC) (SD male rats [1]; [5]) was 40 mg/kg.
For O=C(Cn1c(=O)sc2ccc(Cl)cc21)N1CCN(CCO)CC1 [Control drug II, 4-((5-chloro-2-oxo-3(2H)-benzothiazolyl)acetyl)-1-piperazineethanol], the “Safety margin (LD50 /ED50)” value (SD male rats [2]) was no more than 23, the “Analgesic activity ED50” value (SD male rats [2]) was no less than 160 mg/kg and the “Saftety margin (LD50 /ED50)” value (SD male rats [2]) was no more than 23. The “Acute toxicity LD50” value (ddy male mice; Table 1, mice) was 664 mg/kg, the “Acute toxicity LD50” value (ddy male mice; Table 3, mice) was 564 mg/kg and the “Safety margin (LD50 /ED50)” value (ddy-strain male mice; Table 1, mice) was 8.5. For the same molecule, the “Safety margin (LD50 /ED50)” value (ddy-strain male mice; Table 3, mice) was 8.5, the “Analgesic activity ED50” value (ddy-strain male mice; Table 3, mice) was 66 mg/kg and the ED (fever reduced by more than 1 degC) (SD male rats [1]; [4]) was 40 mg/kg. It also gave an ED (fever reduced by more than 1 degC) (SD male rats [1]; [5]) of 40 mg/kg.
For OC(CN1CCCCC1)c1cc(-c2ccccc2)on1 (centres unmarked) [Control drug III, 3-(1-hydroxy-2-piperadinoethyl)-5-phenyl-isoxazole], the “Safety margin (LD50 /ED50)” value (SD male rats [2]) is listed as 12, the “Saftety margin (LD50 /ED50)” value (SD male rats [2]) is listed as 12 and the “Acute toxicity LD50” value (ddy male mice; Table 1, mice) is listed as 612 mg/kg. The “Acute toxicity LD50” value (ddy male mice; Table 3, mice) was 612 mg/kg, the “Acute toxicity LD50” value (SD male rats [3]; Table 2, rats) was 1,978 mg/kg and the “Acute toxicity LD50” value (SD male rats [3]; Table 4, rats) was 1,978 mg/kg. The “Safety margin (LD50 /ED50)” value (ddy-strain male mice; Table 1, mice) was 5.1, the “Safety margin (LD50 /ED50)” value (ddy-strain male mice; Table 3, mice) was 5.1 and the “Analgesic activity ED50” value (ddy-strain male mice; Table 3, mice) was 120 mg/kg. For the same molecule, the ED (fever reduced by more than 1 degC) (SD male rats [1]; [4]) was 160 mg/kg and the ED (fever reduced by more than 1 degC) (SD male rats [1]; [5]) was 160 mg/kg.
